Columns and labels:
VIOTR = assay: Pre-emergence action at 320 g/ha against VIOTR; type: in vivo, Viola tricolor; details: dosage 320 g/ha
Excerpt: (§1) b) Seeds of monocotyledonous and dicotyledonous weed plants and crop plants are placed in plastic or organic planting pots and covered with soil. The compounds of the invention, formulated in the form of wettable powders (WP) or as emulsion concentrates (EC), are then applied onto the surface of the covering soil as aqueous suspension or emulsion with addition of 0.5% additive at a water application rate of 600 l/ha (converted). After the treatment, the pots are placed in a greenhouse and kept under good growth conditions for the trial plants. After about 3 weeks, the effect of the preparations is scored visually in comparison with untreated controls as percentages. For example, 100% activity=the plants have died, 0% activity=like control plants. Tables 13 to 26 below show the effects of selected compounds of the general formula (I) on various harmful plants and at an application rate corresponding to 320 g/ha, which were obtained by the experimental procedure mentioned above.

ALOMY [1] = assay: Pre-emergence action at 320 g/ha against ALOMY; type: in vivo, Alopecurus myosuroides; details: scored visually after about 3 weeks vs untreated controls (100% = plants have died)
Excerpt: as §1

AMARE [2] = assay: Pre-emergence action at 320 g/ha against AMARE; type: in vivo, Amaranthus retroflexus; details: visual scoring after about 3 weeks vs untreated controls
Excerpt: as §1

POLCO = assay: Pre-emergence action at 320 g/ha against POLCO; type: in vivo, Fallopia convolvulus (Polygonum convolvulus); details: visual scoring after about 3 weeks vs untreated controls
Excerpt: as §1

POAAN [3] = assay: Post-emergence action against POAAN, 1.28 kg/ha; type: in vivo, Poa annua; details: dosage 1280 g/ha, visual rating about 3 weeks after treatment vs untreated controls
Experimental: (§2) • a) Seeds of mono- and dicotyledonous weed plants are placed in plastic pots in sandy loam soil (twin sowing with one species each of mono- or dicotyledonous weed plants per pot), covered with soil and cultivated in a greenhouse under controlled growth conditions. 2 to 3 weeks after sowing, the test plants are treated at the one-leaf stage. The compounds of the invention, formulated in the form of wettable powders (WP) or as emulsion concentrates (EC), are applied to the green parts of the plants as aqueous suspension or emulsion with addition of 0.5% additive at a water application rate equivalent to 600 litres per hectare. After the test plants have been kept in the greenhouse under optimum growth conditions for about 3 weeks, the activity of the preparations is rated visually in comparison to untreated controls. For example, 100% activity=the plants have died, 0% activity=like control plants. As shown by the results, compounds of the general formula (I) of the invention, in post-emergence treatment, have very good herbicidal efficacy (90% to 100% herbicidal action) against harmful plants such as Abutilon theophrasti, Digitaria sanguinalis, Echinochloa crus-galli, Matricaria inodora, Poa annua, at an application rate of 1.28 kg of active substance per hectare.

MATIN [4] = assay: Pre-emergence action against MATIN, 1280 g/ha; type: in vivo, Tripleurospermum inodorum (Matricaria inodora); details: scored visually after about 3 weeks vs untreated controls (100% = plants have died)
Excerpt: (§3) 1. Pre-Emergence Herbicidal Effect and Crop Plant Compatibility a) Seeds of mono- and dicotyledonous weed plants are placed in plastic pots in sandy loam soil (doubly sown with one species each of mono- or dicotyledonous weed plants per pot) and covered with soil. The compounds of the invention, formulated in the form of wettable powders (WP) or as emulsion concentrates (EC), are then applied onto the surface of the covering soil as aqueous suspension or emulsion with addition of 0.5% additive at a water application rate equivalent to 600 litres per hectare. After the treatment, the pots are placed in a greenhouse and kept under good growth conditions for the trial plants. After about 3 weeks, the effect of the preparations is scored visually in comparison with untreated controls as percentages. For example, 100% activity=the plants have died, 0% activity=like control plants. 1. Pre-Emergence Effectiveness Tables 1 to 12 below show the effects of selected compounds of the general formula (I) according to Tables 1 and 2 on various harmful plants and at an application rate corresponding to 1280 g/ha, which were obtained by the experimental procedure mentioned above.

STEME [5] = assay: Post-emergence action against STEME, 1.28 kg/ha; type: in vivo, Stellaria media; details: dosage 1280 g/ha, visual rating about 3 weeks after treatment vs untreated controls (100% = plants died)
Experimental: as §2

AMARE [6] = assay: Pre-emergence action against AMARE, 1280 g/ha; type: in vivo, Amaranthus retroflexus; details: scored visually after about 3 weeks vs untreated controls (100% = plants have died)
Excerpt: as §3

SETVI = assay: Pre-emergence action against SETVI, 1280 g/ha; type: in vivo, Setaria viridis; details: visual scoring after about 3 weeks vs untreated controls, 100% = plants have died, 0% = like control plants
Excerpt: as §3

MATIN [7] = assay: Post-emergence action against MATIN, 1.28 kg/ha; type: in vivo, Tripleurospermum inodorum (Matricaria inodora); details: dosage 1280 g/ha, visual rating about 3 weeks after treatment vs untreated controls (100% = plants died)
Experimental: as §2

ALOMY [8] = assay: Pre-emergence action against ALOMY, 1280 g/ha; type: in vivo, Alopecurus myosuroides; details: visual scoring after about 3 weeks vs untreated controls, 100% = plants have died, 0% = like control plants
Excerpt: as §3

LOLRI = assay: Pre-emergence action against LOLRI, 1280 g/ha; type: in vivo, Lolium rigidum; details: visual scoring after about 3 weeks vs untreated controls, 100% = plants have died, 0% = like control plants
Excerpt: as §3

AMARE [9] = assay: Post-emergence action against AMARE, 1.28 kg/ha; type: in vivo, Amaranthus retroflexus; details: dosage 1280 g/ha, visual rating about 3 weeks after treatment vs untreated controls (100% = plants died)
Experimental: as §2

STEME [10] = assay: Pre-emergence action against STEME, 1280 g/ha; type: in vivo, Stellaria media; details: scored visually after about 3 weeks vs untreated controls (100% = plants have died)
Excerpt: as §3

POAAN [11] = assay: Pre-emergence action against POAAN, 1280 g/ha; type: in vivo, Poa annua; details: visual scoring after about 3 weeks vs untreated controls, 100% = plants have died, 0% = like control plants
Excerpt: as §3

VERPE [12] = assay: Post-emergence action against VERPE, 1.28 kg/ha; type: in vivo, Veronica persica; details: dosage 1280 g/ha, visual rating about 3 weeks after treatment vs untreated controls (100% = plants died)
Experimental: as §2

ALOMY [13] = assay: Post-emergence action against ALOMY, 1.28 kg/ha; type: in vivo, Alopecurus myosuroides; details: dosage 1280 g/ha, visual rating about 3 weeks after treatment vs untreated controls
Experimental: as §2

DIGSA [14] = assay: Pre-emergence action against DIGSA, 1280 g/ha; type: in vivo, Digitaria sanguinalis; details: visual scoring after about 3 weeks vs untreated controls, 100% = plants have died, 0% = like control plants
Excerpt: as §3

VERPE [15] = assay: Pre-emergence action against VERPE, 1280 g/ha; type: in vivo, Veronica persica; details: scored visually after about 3 weeks vs untreated controls (100% = plants have died)
Excerpt: as §3

DIGSA [16] = assay: Post-emergence action against DIGSA, 1.28 kg/ha; type: in vivo, Digitaria sanguinalis; details: dosage 1280 g/ha, visual rating about 3 weeks after treatment vs untreated controls
Experimental: as §2

ECHCG [17] = assay: Pre-emergence action against ECHCG, 1280 g/ha; type: in vivo, Echinochloa crus-galli; details: visual scoring after about 3 weeks vs untreated controls, 100% = plants have died, 0% = like control plants
Excerpt: as §3

ECHCG [18] = assay: Post-emergence action against ECHCG, 1.28 kg/ha; type: in vivo, Echinochloa crus-galli; details: dosage 1280 g/ha, visual rating about 3 weeks after treatment vs untreated controls
Experimental: as §2

SMILES | Pre-emergence action against AMARE in % (AMARE [2]) | Post-emergence action against POAAN (POAAN [3]) | Pre-emergence action against MATIN (MATIN [4]) | Post-emergence action against STEME (STEME [5]) | Pre-emergence action against AMARE (AMARE [6]) | Pre-emergence action against SETVI (SETVI) | Post-emergence action against MATIN (MATIN [7]) | Pre-emergence action against ALOMY (ALOMY [8]) | Pre-emergence action against LOLRI (LOLRI) | Post-emergence action against AMARE (AMARE [9]) | Pre-emergence action against STEME (STEME [10]) | Pre-emergence action against POAAN (POAAN [11]) | Post-emergence action against VERPE (VERPE [12]) | Post-emergence action against ALOMY (ALOMY [13]) | Pre-emergence action against DIGSA (DIGSA [14]) | Pre-emergence action against VERPE (VERPE [15]) | Post-emergence action against DIGSA (DIGSA [16]) | Pre-emergence action against ECHCG (ECHCG [17]) | other results
CCOC(=O)COc1nn(-c2ccccc2F)c(-c2ccc([S+](C)[O-])nc2)c1Br (centres unmarked) [VII-044] | 90% |  |  |  |  |  |  |  |  |  |  |  |  |  |  |  |  |  | Pre-emergence action against VIOTR in % (VIOTR): 100%; Pre-emergence action at 320 g/ha against ALOMY in % (ALOMY [1]): 90%; Pre-emergence action against POLCO in % (POLCO): 100%
CSc1ccc(-c2c(Br)c(OCC(=O)O)nn2-c2ccccc2F)cn1 [VII-047] | 90% |  |  |  |  |  |  |  |  |  |  |  |  |  |  |  |  |  | 
COC(=O)COc1nn(-c2cc(F)ccc2F)c(-c2ccc(F)nc2)c1C#N [VII-063] |  | 100% | 90% | 100% | 100% | 100% | 90% | 100% | 100% | 100% | 100% | 100% | 90% | 100% | 100% | 100% |  |  | 
COC(=O)COc1nn(-c2cc(F)ccc2F)c(-c2ccnc(F)c2)c1C#N [VIII-008] |  | 100% | 100% | 90% | 100% | 100% | 90% |  | 100% | 90% | 100% | 100% | 90% | 100% | 100% | 100% | 90% | 100% | 
CS(=O)(=O)NC(=O)COc1nn(-c2ccccc2F)c(-c2ccnc(F)c2)c1Br [VIII-012] |  | 100% | 100% | 90% | 100% | 100% | 100% | 100% | 100% | 100% |  | 100% | 90% | 100% | 100% | 100% | 100% | 100% | Post-emergence action against ECHCG (ECHCG [18]): 100%
